Read-outs that look alike come from different tables or passages of the source.
Key:
[1] = cited from earlier work
[2] = system: MRSA strains; assay: Teicoplanin susceptibility testing; format: cell-based, methicillin-resistant Staphylococcus aureus; settings: Mueller-Hinton agar, E-test, 16–20 hours at 37°C
[3] = system: MRSA infections; assay: PK/PD analysis: AUC24/MIC ratio versus bacteriological response in patients; format: in vivo, patients (human); settings: for probability of treatment success: logistic regression, 46 patients
[4] = mean population PK parameter, Japanese patients; cited from earlier work
[5] = system: MRSA infections; settings: cited from earlier work; for AUC24 value on the third day: ref 12 (Hagihara et al)
[6] = system: MRSA isolates; settings: all isolates, cited from earlier work

CN[C@H](CC(C)C)C(=O)N[C@H]1C(=O)N[C@@H](CC(N)=O)C(=O)N[C@H]2C(=O)N[C@H]3C(=O)N[C@H](C(=O)N[C@H](C(=O)O)c4cc(O)cc(O)c4-c4cc3ccc4O)[C@H](O)c3ccc(c(Cl)c3)Oc3cc2cc(c3O[C@@H]2O[C@H](CO)[C@@H](O)[C@H](O)[C@H]2O[C@H]2C[C@](C)(N)[C@H](O)[C@H](C)O2)Oc2ccc(cc2Cl)[C@H]1O [vancomycin]
trough concentrations needed to achieve an AUC value of ≥400 [1]: 10 to 20 µg/mL
AUC/MIC ratio associated with clinical and bacteriological responses ([1]; guidelines for therapeutic drug monitoring): ≥ 400

teicoplanin
MIC ([2]; 2.2% of the 46 MRSA strains): 0.38 µg/mL
MIC ([2]; 6.5% of the 46 MRSA strains): 0.5 µg/mL
MIC ([2]; 13.0% of the 46 MRSA strains): 1.5 µg/mL
MIC ([2]; 34.8% of the 46 MRSA strains): 1.0 µg/mL
MIC ([2]; 43.5% of the 46 MRSA strains): 0.75 µg/mL
probability of treatment success ([3]; AUC24/MIC ratio of 500 µg·h/mL on day 3): 0.50
probability of treatment success ([3]; AUC24/MIC ratio of 700 µg·h/mL on day 3): 0.72
probability of treatment success ([3]; AUC24/MIC ratio of 900 µg·h/mL on day 3): 0.87
bacteriological response, AUC24/MIC ratios of ≥900 (n=15) versus <900 (n=31) ([3]; Kaplan–Meier curve analysis, P<0.05): significantly stronger bacteriological responses
AUC24/MIC ratio required to ensure bacteriological responses ([3]; patients with MRSA infections): ≥ 900 µg·h/mL
distribution volume of the central compartment [4]: 10.4 L
transfer rate constant from the central compartment to the peripheral compartment [4]: 0.38 h⁻¹
transfer rate constant from the peripheral compartment to the central compartment [4]: 0.0485 h⁻¹
trough concentrations effective for treating most infections [5]: > 13 µg/mL
log[Cmax, unbound/MIC] threshold for achieving treatment success ([5]; day 3 of teicoplanin therapy, ref 14 (Ogawa et al)): 0.30
AUC24 value on the third day ([5]; treatment failure group): 652.9 ± 83.4 µg·h/mL
AUC24 value on the third day ([5]; treatment success group): 897.6 ± 71.7 µg·h/mL
MIC ([6]; ref 12): ≤ 1.0 µg/mL
MIC ([6]; ref 13): < 2.0 µg/mL

Source: publication PMC4822798 (Clinical Pharmacology : Advances and Applications, 2016)
